Data reported in article PMC5218480 (PLoS ONE, 2017).

System: MV-4-11 cells
Experiment: Gene expression microarray analysis (Affymetrix PrimeView) and GSEA
Format: cell-based, human
Parameters: RFU PODN (11730768_x_at) / Fold change /veh PODN (11730768_x_at) / RFU LINC00158 (11744669_a_at) / Fold change /veh LINC00158 (11744669_a_at) / RFU DUSP10 (11751237_a_at) / Fold change /veh DUSP10 (11751237_a_at) / RFU ID3 (11757404_x_at) / Fold change /veh ID3 (11757404_x_at) / RFU PLEKHG5 (11737974_s_at) / Fold change /veh PLEKHG5 (11737974_s_at) / RFU LRRC4B (11730491_at) / Fold change /veh LRRC4B (11730491_at) / RFU GIMAP4 (11747438_a_at) / Fold change /veh GIMAP4 (11747438_a_at) / RFU KRT8 (11758183_x_at) / Fold change /veh KRT8 (11758183_x_at) / RFU CNN1 (11734310_a_at) / Fold change /veh CNN1 (11734310_a_at) / RFU VPS37D (11726825_at) / Fold change /veh VPS37D (11726825_at) / RFU C10orf10 (11716522_x_at) / Fold change /veh C10orf10 (11716522_x_at) / RFU KIR2DL2 /// KIR2DL4 /// KIR2DL5A /// KIR2DL5B /// KIR2DS1 /// KIR2DS2 /// KIR2DS3 /// KIR2DS4 /// KIR3DL3 /// KIR3DL3 /// KIR3DS1 (11738374_at) / Fold change /veh KIR2DL2 /// KIR2DL4 /// KIR2DL5A /// KIR2DL5B /// KIR2DS1 /// KIR2DS2 /// KIR2DS3 /// KIR2DS4 /// KIR3DL3 /// KIR3DL3 /// KIR3DS1 (11738374_at) / RFU C1QL1 (11718748_at) / Fold change /veh C1QL1 (11718748_at) / RFU TMPRSS4 (11747572_a_at) / Fold change /veh TMPRSS4 (11747572_a_at) / RFU HAMP (11756126_x_at) / Fold change /veh HAMP (11756126_x_at) / RFU RNFT2 (11725882_a_at) / Fold change /veh RNFT2 (11725882_a_at) / RFU NR4A2 (11747474_a_at) / Fold change /veh NR4A2 (11747474_a_at) / RFU ABCC12 (11746883_a_at) / Fold change /veh ABCC12 (11746883_a_at) / RFU TMEM136 (11760407_x_at) / Fold change /veh TMEM136 (11760407_x_at) / RFU CLDN22 /// WWC2 (11732394_at) / Fold change /veh CLDN22 /// WWC2 (11732394_at) / RFU HLA-DPB1 (11760878_x_at) / Fold change /veh HLA-DPB1 (11760878_x_at) / RFU SPINT1 (11716480_a_at) / Fold change /veh SPINT1 (11716480_a_at) / RFU GAP43 (11754022_s_at) / Fold change /veh GAP43 (11754022_s_at) / RFU A4GNT (11735810_at) / Fold change /veh A4GNT (11735810_at) / RFU PRB3 (11715151_x_at) / Fold change /veh PRB3 (11715151_x_at) / RFU TUBB4B (11761932_at) / Fold change /veh TUBB4B (11761932_at) / RFU CAPN14 (11732068_a_at) / Fold change /veh CAPN14 (11732068_a_at) / RFU TMCC2 (11721928_a_at) / Fold change /veh TMCC2 (11721928_a_at) / RFU IRGQ (11745062_a_at) / Fold change /veh IRGQ (11745062_a_at) / RFU FAM174B (11720279_a_at) / Fold change /veh FAM174B (11720279_a_at) / RFU TMPRSS4 (11748680_a_at) / Fold change /veh TMPRSS4 (11748680_a_at) / RFU FAM212B (11763350_a_at) / Fold change /veh FAM212B (11763350_a_at) / RFU PLEKHG5 (11743358_a_at) / Fold change /veh PLEKHG5 (11743358_a_at) / RFU ZSCAN30 (11745921_a_at) / Fold change /veh ZSCAN30 (11745921_a_at) / RFU CMKLR1 (11741424_a_at) / Fold change /veh CMKLR1 (11741424_a_at) / RFU LOC101060620 /// MAPK8IP1 (11723275_at) / Fold change /veh LOC101060620 /// MAPK8IP1 (11723275_at) / RFU SPTSSB (11747773_x_at) / Fold change /veh SPTSSB (11747773_x_at) / RFU PRSS12 (11739890_at) / Fold change /veh PRSS12 (11739890_at) / RFU BIN1 (11741810_x_at) / Fold change /veh BIN1 (11741810_x_at) / RFU WNT11 (11732464_a_at) / Fold change /veh WNT11 (11732464_a_at) / RFU C10orf10 (11716521_a_at) / Fold change /veh C10orf10 (11716521_a_at) / RFU C5orf56 (11738089_at) / Fold change /veh C5orf56 (11738089_at) / RFU CYB561 (11721691_x_at) / Fold change /veh CYB561 (11721691_x_at) / RFU ANKRD19P (11752326_a_at) / Fold change /veh ANKRD19P (11752326_a_at) / RFU OR2T12 /// OR2T33 /// OR2T8 (11738714_s_at) / Fold change /veh OR2T12 /// OR2T33 /// OR2T8 (11738714_s_at) / RFU VCAN (11748164_a_at) / Fold change /veh VCAN (11748164_a_at) / RFU JSRP1 (11732532_at) / Fold change /veh JSRP1 (11732532_at) / RFU KRTAP10-11 (11738290_x_at) / Fold change /veh KRTAP10-11 (11738290_x_at) / RFU MYO3A (11730013_a_at) / Fold change /veh MYO3A (11730013_a_at) / RFU EBF3 (11725865_a_at) / Fold change /veh EBF3 (11725865_a_at) / RFU CAMK2N1 (11719241_x_at) / Fold change /veh CAMK2N1 (11719241_x_at) / RFU C5orf56 (11738088_a_at) / Fold change /veh C5orf56 (11738088_a_at) / RFU OLFML3 (11715873_a_at) / Fold change /veh OLFML3 (11715873_a_at) / RFU LOC100653217 /// NTM (11731650_a_at) / Fold change /veh LOC100653217 /// NTM (11731650_a_at) / RFU MAPK11 (11762145_a_at) / Fold change /veh MAPK11 (11762145_a_at) / RFU FIZ1 (11724087_x_at) / Fold change /veh FIZ1 (11724087_x_at) / RFU OASL (11726364_x_at) / Fold change /veh OASL (11726364_x_at) / RFU SOX15 (11748057_x_at) / Fold change /veh SOX15 (11748057_x_at) / RFU CD79A (11719716_a_at) / Fold change /veh CD79A (11719716_a_at) / RFU HIST1H1D (11736915_at) / Fold change /veh HIST1H1D (11736915_at) / RFU CASKIN2 (11723855_a_at) / Fold change /veh CASKIN2 (11723855_a_at) / RFU LOC730098 (11760151_x_at) / Fold change /veh LOC730098 (11760151_x_at) / RFU OR4N2 (11742367_at) / Fold change /veh OR4N2 (11742367_at) / RFU PRRT2 (11749266_a_at) / Fold change /veh PRRT2 (11749266_a_at) / RFU SNX32 (11753110_a_at) / Fold change /veh SNX32 (11753110_a_at) / RFU CDHR5 (11726645_a_at) / Fold change /veh CDHR5 (11726645_a_at) / RFU RCAN1 (11760418_a_at) / Fold change /veh RCAN1 (11760418_a_at) / RFU FAM167A (11723789_a_at) / Fold change /veh FAM167A (11723789_a_at) / RFU FAM26E (11764081_at) / Fold change /veh FAM26E (11764081_at) / RFU ISYNA1 (11749810_s_at) / Fold change /veh ISYNA1 (11749810_s_at) / RFU ACY1 (11761880_at) / Fold change /veh ACY1 (11761880_at) / RFU 11764098_at / Fold change /veh 11764098_at / RFU SAMD14 (11745864_x_at) / Fold change /veh SAMD14 (11745864_x_at) / RFU NPB (11741838_a_at) / Fold change /veh NPB (11741838_a_at) / RFU TMPRSS6 (11731388_a_at) / Fold change /veh TMPRSS6 (11731388_a_at) / RFU KRTAP10-2 (11738614_at) / Fold change /veh KRTAP10-2 (11738614_at) / RFU ARHGAP8 /// PRR5-ARHGAP8 (11727945_x_at) / Fold change /veh ARHGAP8 /// PRR5-ARHGAP8 (11727945_x_at) / RFU KRTAP5-7 /// NADSYN1 (11734609_at) / Fold change /veh KRTAP5-7 /// NADSYN1 (11734609_at) / RFU RASL12 (11751679_a_at) / Fold change /veh RASL12 (11751679_a_at) / RFU CDKN2B (11736163_a_at) / Fold change /veh CDKN2B (11736163_a_at) / RFU PRF1 (11729649_at) / Fold change /veh PRF1 (11729649_at) / RFU, ZNF638 /// ZNF638-IT1 / Fold change vs veh, ZNF638 /// ZNF638-IT1 / RFU, PANK3 / Fold change vs veh, PANK3 / RFU, SH3YL1 / Fold change vs veh, SH3YL1 / RFU, ZEB2 / Fold change vs veh, ZEB2 / RFU, NRIP1 / Fold change vs veh, NRIP1 / RFU, PTTG1IP / Fold change vs veh, PTTG1IP / RFU, CAPN2 / Fold change vs veh, CAPN2 / RFU, MED14 / Fold change vs veh, MED14 / RFU, SNORA58 / Fold change vs veh, SNORA58 / RFU, C1orf63 / Fold change vs veh, C1orf63 / RFU, LRRFIP1 / Fold change vs veh, LRRFIP1 / RFU, NDUFAF7 / Fold change vs veh, NDUFAF7 / RFU, SLC12A2 / Fold change vs veh, SLC12A2 / RFU, IBTK / Fold change vs veh, IBTK / RFU, ESF1 / Fold change vs veh, ESF1 / Fold change vs veh, TMEM50B / RFU, TAOK1 / Fold change vs veh, TAOK1 / RFU, ACBD3 / Fold change vs veh, ACBD3 / RFU, TMA16 / Fold change vs veh, TMA16 / RFU, RWDD3 / Fold change vs veh, RWDD3 / RFU, BCAT1 / Fold change vs veh, BCAT1 / RFU, EDEM3 / Fold change vs veh, EDEM3 / RFU, TMEM33 / Fold change vs veh, TMEM33 / RFU, WDR75 / Fold change vs veh, WDR75 / RFU, AHCTF1 / Fold change vs veh, AHCTF1 / RFU, TFRC / Fold change vs veh, TFRC / RFU, ZDHHC17 / Fold change vs veh, ZDHHC17 / RFU, NOM1 / Fold change vs veh, NOM1 / RFU, ARL8B / Fold change vs veh, ARL8B / RFU, ZBTB11 / Fold change vs veh, ZBTB11 / RFU, TAMM41 / Fold change vs veh, TAMM41 / RFU, KIAA1704 /// LOC100996395 / Fold change vs veh, KIAA1704 /// LOC100996395 / RFU, ING1 / Fold change vs veh, ING1 / RFU, TRMT61B / Fold change vs veh, TRMT61B / RFU, FUBP3 / Fold change vs veh, FUBP3 / RFU, TP53 / Fold change vs veh, TP53 / RFU, TNKS2 / Fold change vs veh, TNKS2 / RFU, ZFP14 / Fold change vs veh, ZFP14 / RFU, ACTR2 / Fold change vs veh, ACTR2 / RFU, PPP3R1 / Fold change vs veh, PPP3R1 / RFU, PIK3R1 / Fold change vs veh, PIK3R1 / RFU, HNRNPA1 / Fold change vs veh, HNRNPA1 / RFU, RNF170 / Fold change vs veh, RNF170 / RFU, ZNF28 / Fold change vs veh, ZNF28 / RFU, RNGTT / Fold change vs veh, RNGTT / RFU, OGT / Fold change vs veh, OGT / RFU, BRD1 / Fold change vs veh, BRD1 / RFU, MARS / Fold change vs veh, MARS / RFU, ZNF655 / Fold change vs veh, ZNF655 / RFU, FAHD1 / Fold change vs veh, FAHD1 / RFU, BDP1 / Fold change vs veh, BDP1 / RFU, LRRCC1 / Fold change vs veh, LRRCC1 / RFU, ARID1A / Fold change vs veh, ARID1A / RFU, ZNF146 / Fold change vs veh, ZNF146 / RFU, ZNF330 / Fold change vs veh, ZNF330 / RFU, GPN3 / Fold change vs veh, GPN3 / RFU, C9orf123 / Fold change vs veh, C9orf123 / RFU, N4BP2L2 / Fold change vs veh, N4BP2L2 / RFU, ARFIP1 / Fold change vs veh, ARFIP1 / RFU, FAM179B / Fold change vs veh, FAM179B / RFU, BCL10 / Fold change vs veh, BCL10 / RFU, UHRF1BP1L / Fold change vs veh, UHRF1BP1L / RFU, BET1 / Fold change vs veh, BET1 / RFU, CNOT2 / Fold change vs veh, CNOT2 / RFU, ZNF268 / Fold change vs veh, ZNF268 / Fold change vs veh, ZNF507 / RFU, DGCR2 / Fold change vs veh, DGCR2 / RFU, WDSUB1 / Fold change vs veh, WDSUB1 / Fold change vs veh, HSP90B1 /// MIR3652 / RFU, ADSS / Fold change vs veh, ADSS / RFU, GK / Fold change vs veh, GK / RFU, ZNF148 / Fold change vs veh, ZNF148 / RFU, TAF9 / Fold change vs veh, TAF9 / RFU, SLC1A5 / Fold change vs veh, SLC1A5 / RFU, SLMO2 / Fold change vs veh, SLMO2 / RFU, ABCC4 / Fold change vs veh, ABCC4 / RFU, LOC101060439 /// RAP1B / Fold change vs veh, LOC101060439 /// RAP1B / RFU, RFX7 / Fold change vs veh, RFX7 / RFU, GTPBP10 / Fold change vs veh, GTPBP10 / RFU, CNEP1R1 / Fold change vs veh, CNEP1R1 / RFU, BIVM-ERCC5 /// ERCC5 / Fold change vs veh, BIVM-ERCC5 /// ERCC5 / RFU, ILF3 / Fold change vs veh, ILF3 / RFU 11762660_at / Fold change /veh 11762660_at / RFU VCAN (11757783_s_at) / Fold change /veh VCAN (11757783_s_at) / RFU DDX43 (11728927_at) / Fold change /veh DDX43 (11728927_at) / RFU KRT8 (11758188_x_at) / Fold change /veh KRT8 (11758188_x_at) / RFU NKD1 (11759106_at) / Fold change /veh NKD1 (11759106_at) / RFU SRD5A1 (11742802_a_at) / Fold change /veh SRD5A1 (11742802_a_at) / RFU TPSAB1 /// TPSB2 (11721975_s_at) / Fold change /veh TPSAB1 /// TPSB2 (11721975_s_at) / RFU GSTM3 (11746129_a_at) / Fold change /veh GSTM3 (11746129_a_at) / RFU IL23R (11737362_x_at) / Fold change /veh IL23R (11737362_x_at) / RFU TMEM51 (11727254_a_at) / Fold change /veh TMEM51 (11727254_a_at) / RFU PIWIL2 (11732686_x_at) / Fold change /veh PIWIL2 (11732686_x_at) / RFU ORM1 (11744905_x_at) / Fold change /veh ORM1 (11744905_x_at) / RFU CCDC152 (11743942_at) / Fold change /veh CCDC152 (11743942_at) / RFU ECM1 (11717891_a_at) / Fold change /veh ECM1 (11717891_a_at) / RFU IL23R (11748794_a_at) / Fold change /veh IL23R (11748794_a_at) / RFU TNFAIP8L3 (11732012_x_at) / Fold change /veh TNFAIP8L3 (11732012_x_at) / RFU MBOAT4 (11741988_at) / Fold change /veh MBOAT4 (11741988_at) / RFU 11764193_at / Fold change /veh 11764193_at / RFU TMEM53 (11763286_at) / Fold change /veh TMEM53 (11763286_at) / RFU MAGEB2 (11727129_at) / Fold change /veh MAGEB2 (11727129_at) / RFU TMEM200A (11744735_a_at) / Fold change /veh TMEM200A (11744735_a_at) / RFU CCDC152 (11751479_a_at) / Fold change /veh CCDC152 (11751479_a_at) / RFU FAM211A (11726209_a_at) / Fold change /veh FAM211A (11726209_a_at) / RFU RGS16 (11746705_a_at) / Fold change /veh RGS16 (11746705_a_at) / RFU VCAN (11755009_s_at) / Fold change /veh VCAN (11755009_s_at) / RFU RHOB (11743442_s_at) / Fold change /veh RHOB (11743442_s_at) / RFU RGS16 (11720943_a_at) / Fold change /veh RGS16 (11720943_a_at) / RFU RGS16 (11720944_at) / Fold change /veh RGS16 (11720944_at) / RFU, VPS4B / Fold change vs veh, VPS4B / RFU, CREB1 / Fold change vs veh, CREB1 / RFU, DNAJC13 / Fold change vs veh, DNAJC13 / RFU, GNAQ / Fold change vs veh, GNAQ / RFU, CDK5R1 / Fold change vs veh, CDK5R1 / RFU, ZRANB3 / Fold change vs veh, ZRANB3 / RFU, CUL4A / Fold change vs veh, CUL4A / RFU, CCNY / Fold change vs veh, CCNY / RFU, UFL1 / Fold change vs veh, UFL1 / RFU, COG3 / Fold change vs veh, COG3 / RFU, DIAPH2 / Fold change vs veh, DIAPH2 / RFU, SKA2 / Fold change vs veh, SKA2 / RFU, AFF3 / Fold change vs veh, AFF3 / RFU, LMF1 / Fold change vs veh, LMF1 / RFU, IPO11 / Fold change vs veh, IPO11 / RFU, DFFB / Fold change vs veh, DFFB / RFU, FOXP1 / Fold change vs veh, FOXP1 / RFU, CARD8 / Fold change vs veh, CARD8 / RFU, STRN3 / Fold change vs veh, STRN3 / RFU, ADK / Fold change vs veh, ADK / RFU, RASSF2 / Fold change vs veh, RASSF2 / RFU, WIPF1 / Fold change vs veh, WIPF1 / RFU, LARP1B / Fold change vs veh, LARP1B / RFU, RASA1 / Fold change vs veh, RASA1 / RFU, RB1 / Fold change vs veh, RB1 / RFU, PPFIA1 / Fold change vs veh, PPFIA1 / RFU, MAT2A / Fold change vs veh, MAT2A / RFU, CCT5 / Fold change vs veh, CCT5 / RFU, WDR92 / Fold change vs veh, WDR92 / RFU, CUX1 / Fold change vs veh, CUX1 / RFU, TTC7A / Fold change vs veh, TTC7A / RFU, TMEM135 / Fold change vs veh, TMEM135 / RFU, DEPTOR / Fold change vs veh, DEPTOR / RFU, CPM / Fold change vs veh, CPM / RFU, DNAJB6 / Fold change vs veh, DNAJB6 / RFU, CACNA2D3 / Fold change vs veh, CACNA2D3 / RFU, DTX4 / Fold change vs veh, DTX4 / RFU, TFCP2 / Fold change vs veh, TFCP2 / RFU, GMCL1 /// GMCL1P1 / Fold change vs veh, GMCL1 /// GMCL1P1 / RFU, AEBP2 / Fold change vs veh, AEBP2 / RFU, SNHG1 /// SNORD22 /// SNORD25 /// SNORD26 /// SNORD27 /// SNORD28 /// SNORD29 /// SNORD31 / Fold change vs veh, SNHG1 /// SNORD22 /// SNORD25 /// SNORD26 /// SNORD27 /// SNORD28 /// SNORD29 /// SNORD31 / Fold change (Aza/veh), C12orf56 (ProbeSet 11735607_a_at) / Fold change (ACY-1035/veh), C12orf56 (ProbeSet 11735607_a_at) / Fold change (Aza/veh), FGFR1OP (ProbeSet 11751329_s_at) / Fold change (ACY-1035/veh), FGFR1OP (ProbeSet 11751329_s_at) / Fold change (Aza/veh), VPS36 (ProbeSet 11739960_a_at) / Fold change (ACY-1035/veh), VPS36 (ProbeSet 11739960_a_at) / RFU SYPL1 (11715823_x_at) / Fold change /veh SYPL1 (11715823_x_at) / RFU IGFBP7 (11715501_s_at) / Fold change /veh IGFBP7 (11715501_s_at) / RFU REEP3 (11722064_at) / Fold change /veh REEP3 (11722064_at) / RFU IGLL1 (11728026_x_at) / Fold change /veh IGLL1 (11728026_x_at): dose or concentration left out as unconfirmed
Details: MV-4-11 cells, 48 hours

In the case of `Nc1ccc(-c2cccs2)cc1NC(=O)c1ccc2c(c1)cc(C1CC1)n2CCN1CCOCC1` [ACY-1035], the “Fold change /veh VCAN (11757783_s_at)” value is reported as 1.01.
